Reference: publication PMC7047604 (Journal of medicinal chemistry, 2020)
“Also recorded” adds a separate entry of the source.

Assays:
human DOR [1] = target: T1, human DOR (Homo sapiens, UniProt P41143); type: binding
human KOR [2] = target: T2, human KOR (Homo sapiens, UniProt P41145); type: binding
human KOR [3] = target: T2, human KOR; type: biochemical
male C57BL/6 mice = conditions: mouse, in vivo
in vitro = conditions: mouse, microsomes, pH 7.4, metabolic half-life in MLM, abstract statement
human MOR = human MOR (Homo sapiens, UniProt P35372); test: biochemical; type: biochemical; conditions: for Emax at 10 µM: read-out: Efficacy (% Stimulation) MOR
Chain of human MOR (P35372 whole entry): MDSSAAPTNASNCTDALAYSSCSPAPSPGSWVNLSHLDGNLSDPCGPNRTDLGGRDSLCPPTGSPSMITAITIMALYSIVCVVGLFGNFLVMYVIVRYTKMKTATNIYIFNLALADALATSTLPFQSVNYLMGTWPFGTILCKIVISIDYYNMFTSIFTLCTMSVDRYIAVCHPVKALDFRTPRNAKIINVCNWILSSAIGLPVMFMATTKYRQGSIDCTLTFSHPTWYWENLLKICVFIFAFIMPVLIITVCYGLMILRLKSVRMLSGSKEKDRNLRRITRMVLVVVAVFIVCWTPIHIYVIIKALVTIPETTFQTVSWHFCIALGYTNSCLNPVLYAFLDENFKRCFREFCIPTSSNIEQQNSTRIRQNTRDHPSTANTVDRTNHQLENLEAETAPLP

human DOR [4] = target: T1, human DOR; type: biochemical

T2 sequence (P41145 whole entry): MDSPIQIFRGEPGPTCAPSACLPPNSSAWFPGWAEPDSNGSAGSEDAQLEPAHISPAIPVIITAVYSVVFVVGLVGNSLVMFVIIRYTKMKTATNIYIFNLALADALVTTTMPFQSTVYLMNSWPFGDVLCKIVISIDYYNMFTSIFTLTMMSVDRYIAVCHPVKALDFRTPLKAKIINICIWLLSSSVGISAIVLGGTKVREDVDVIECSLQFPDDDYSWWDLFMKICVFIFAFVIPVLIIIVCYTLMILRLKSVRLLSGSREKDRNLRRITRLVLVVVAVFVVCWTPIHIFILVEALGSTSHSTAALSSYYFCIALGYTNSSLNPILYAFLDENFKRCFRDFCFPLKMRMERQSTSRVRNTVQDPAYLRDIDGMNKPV
T1 sequence (P41143 whole entry): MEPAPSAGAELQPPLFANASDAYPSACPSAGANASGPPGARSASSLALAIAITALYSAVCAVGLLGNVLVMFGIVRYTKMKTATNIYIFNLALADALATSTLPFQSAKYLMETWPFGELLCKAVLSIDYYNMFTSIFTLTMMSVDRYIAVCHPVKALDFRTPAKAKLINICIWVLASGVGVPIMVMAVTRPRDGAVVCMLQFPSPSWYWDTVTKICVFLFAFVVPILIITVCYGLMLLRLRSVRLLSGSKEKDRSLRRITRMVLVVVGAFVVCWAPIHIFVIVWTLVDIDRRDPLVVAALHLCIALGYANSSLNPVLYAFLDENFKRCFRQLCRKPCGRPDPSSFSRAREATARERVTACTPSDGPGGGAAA

SMILES | Selectivity MOR:DOR:KOR, DOR term (Ki DOR / Ki MOR) (human DOR [1]) | Selectivity MOR:DOR:KOR, KOR term (Ki KOR / Ki MOR) (human KOR [2]) | Efficacy (% Stimulation) KOR (human KOR [3]) | Potency, EC50 KOR (human KOR [3]) | antinociceptive activity in AASA at 1 mg/kg (male C57BL/6 mice) | half-life at 1 μM (in vitro) | KOR binding affinity in words (human KOR [2]) | Emax at 10 µM (human MOR) | Efficacy (% Stimulation) DOR (human DOR [4]) | Potency, EC50 DOR (human DOR [4]) | antinociceptive activity in AASA (overall) (male C57BL/6 mice) | Efficacy (% Stimulation) MOR (human MOR) | Potency, EC50 MOR (human MOR) | MOR agonist character in words (human MOR) | partial DOR agonist, potency in words (human DOR [4])
CCOc1ccc(CN2CCCCC2)cc1CNC(=O)[C@@H](N)Cc1c(C)cc(O)cc1C.O=C(O)C(F)(F)F [Compound 14, (S)-1-((2-ethoxy-5-(piperidin-1-ylmethyl)benzyl)amino)-3-(4-hydroxy-2,6-dimethylphenyl)-1-oxopropan-2-aminium trifluoroacetate] | 1:3.1:20 | 1:3.1:20 | DNS | DNS | active antinociceptive agents | > 1 h | – | – | – | – | – | – | – | – | –
CCOc1ccc(CN(C)Cc2ccccc2)cc1CNC(=O)[C@@H](N)Cc1c(C)cc(O)cc1C.O=C(O)C(F)(F)F [Compound 20, (S)-1-((5-((benzyl(methyl)amino)methyl)-2-ethoxybenzyl)amino)-3-(4-hydroxy-2,6-dimethylphenyl)-1-oxopropan-2-aminium trifluoroacetate] | 1:4.0:26 | 1:4.0:26 | DNS | DNS | – | – | low double-digit | 72.2 ± 6.2% | did not stimulate DOR and DNS | DNS | inactive; also recorded: lacked antinociceptive activity | – | – | – | –
CCOc1ccc(C(=O)N2CCCC2)cc1CNC(=O)[C@@H](N)Cc1c(C)cc(O)cc1C.O=C(O)C(F)(F)F [Compound 21, (S)-1-((2-ethoxy-5-(pyrrolidine-1-carbonyl)benzyl)amino)-3-(4-hydroxy-2,6-dimethylphenyl)-1-oxopropan-2-aminium trifluoroacetate] | 1:2.2:>22 | 1:2.2:>22 | DNS | DNS | – | – | – | – | did not stimulate DOR and DNS | DNS | – | DNS | DNS | – | –
CCOc1ccc(CN2CCOCC2)cc1CNC(=O)[C@@H](N)Cc1c(C)cc(O)cc1C.O=C(O)C(F)(F)F [Compound 16, (S)-1-((2-ethoxy-5-(morpholinomethyl)benzyl)amino)-3-(4-hydroxy-2,6-dimethylphenyl)-1-oxopropan-2-aminium trifluoroacetate] | 1:2.0:>49 | 1:2.0:>49 | DNS | DNS | – | – | – | – | did not stimulate DOR and DNS | DNS | – | – | – | – | –
CCOc1ccc(CN2CCc3ccccc3C2)cc1CNC(=O)[C@@H](N)Cc1c(C)cc(O)cc1C.O=C(O)C(F)(F)F [Compound 18, (S)-1-((5-((3,4-dihydroisoquinolin-2(1H)-yl)methyl)-2-ethoxybenzyl)amino)-3-(4-hydroxy-2,6-dimethylphenyl)-1-oxopropan-2-aminium trifluoroacetate] | 1:10:192 | – | DNS | DNS | – | – | – | 94.6 ± 3.9% | did not stimulate DOR and DNS | DNS | – | – | – | full agonists | –
CCOc1ccc(CNCc2ccccc2)cc1CNC(=O)[C@@H](N)Cc1c(C)cc(O)cc1C.O=C(O)C(F)(F)F [Compound 19, (S)-1-((5-((benzylamino)methyl)-2-ethoxybenzyl)amino)-3-(4-hydroxy-2,6-dimethylphenyl)-1-oxopropan-2-aminium trifluoroacetate] | – | – | >20% | – | – | – | low double-digit | 77.9 ± 3% | 26.1±1.7% | – | – | – | – | – | high
CCOc1ccc(C(=O)N2Cc3ccccc3C2)cc1CNC(=O)[C@@H](N)Cc1c(C)cc(O)cc1C.O=C(O)C(F)(F)F [Compound 22, (S)-1-((2-ethoxy-5-(isoindoline-2-carbonyl)benzyl)amino)-3-(4-hydroxy-2,6-dimethylphenyl)-1-oxopropan-2-aminium trifluoroacetate] | 1:20:900 | – | DNS | DNS | – | – | – | 27.8 ± 0.7% | did not stimulate DOR and DNS | DNS | – | – | – | – | –
CCOc1ccc(CN2CC3CC3C2)cc1CNC(=O)[C@@H](N)Cc1c(C)cc(O)cc1C.O=C(O)C(F)(F)F (stereo partly drawn) [Compound 15, (2S)-1-((5-((3-azabicyclo[3.1.0]hexan-3-yl)methyl)-2-ethoxybenzyl)amino)-3-(4-hydroxy-2,6-dimethylphenyl)-1-oxopropan-2-aminium trifluoroacetate] | 1:2.6:13 | 1:2.6:13 | – | – | – | – | – | – | – | – | – | – | – | – | –
CCOc1ccc(CN2Cc3ccccc3C2)cc1CNC(=O)[C@@H](N)Cc1c(C)cc(O)cc1C.O=C(O)C(F)(F)F [Compound 17, (S)-1-((2-ethoxy-5-(isoindolin-2-ylmethyl)benzyl)amino)-3-(4-hydroxy-2,6-dimethylphenyl)-1-oxopropan-2-aminium trifluoroacetate] | – | – | DNS | DNS | active antinociceptive agents | – | – | 98.1 ± 6.7% | 35.7±2.8% | – | – | – | – | full agonists | moderate
CCOc1ccc(CN2CCCC2)cc1CNC(=O)[C@@H](N)Cc1c(C)cc(O)cc1C.O=C(O)C(F)(F)F [Compound 13, (S)-1-((2-ethoxy-5-(pyrrolidin-1-ylmethyl)benzyl)amino)-3-(4-hydroxy-2,6-dimethylphenyl)-1-oxopropan-2-aminium trifluoroacetate] | 1:3.0:29 | 1:3.0:29 | – | – | – | – | – | – | – | – | inactive; also recorded: lacked antinociceptive activity | – | – | – | –
